Patent publication US9394299B2, “Rilyazine derivatives and compositions for the treatment of cancer” (Warner Babcock Institute for Green Chemistry, LLC, priority 2013, dated 2016)
“Also recorded” adds a separate entry of the source. Read-outs that look alike come from different tables or passages of the source.

Test system: 60 cell lines (human tumor cell lines of the cancer screening panel)
Test: NCI 60 cell line screening, single point dosing at 10 μM (SRB)
Format: cell-based
Settings: for GI50: Homo sapiens, read-out: GI50 (NCI Results, single point, 10 μM); for Delta of Growth Percent across all cell lines / Mean Growth Percent across all cell lines: single dose 10^−5 M
Description: The screening is a two-stage process, beginning with the evaluation of all compounds against 60 cell lines at a single dose of 10^−5 M.
The human tumor cell lines of the cancer screening panel are grown in RPMI 1640 medium containing 5% fetal bovine serum and 2 mM L-glutamine. Cells are inoculated into 96 well microtiter plates in 100 μL at plating densities ranging from 5,000 to 40,000 cells/well depending on the doubling time of individual cell lines. After cell inoculation, the microtiter plates are incubated at 37° C., 5% CO2, 95% air and 100% relative humidity for 24 h prior to addition of experimental drugs.
After 24 h, two plates of each cell line are fixed in situ with TCA, to represent a measurement of the cell population for each cell line at the time of drug addition Time Zero (Tz). Experimental drugs are solubilized in dimethyl sulfoxide:glycerol 9:1 at 400-fold the desired final maximum test concentration and stored frozen at −70° C. prior to use. At the time of drug addition, an aliquot of frozen concentrate is thawed and diluted to twice the desired final maximum test concentration with complete medium containing 50 μg/ml gentamicin. Additional four, 10-fold or ½ log serial dilutions are made to provide a total of five drug concentrations plus control. Aliquots of 100 μl of these different drug dilutions are added to the appropriate microtiter wells already containing 100 μl of medium, resulting in the required final drug concentrations.
Positive control is prepared by adding the known anti-tumor agent adriamycin, NSC 123127, prepared and stored the same as the compounds for testing.
Following drug addition, the plates are incubated for an additional 48 h at 37° C., 5% CO2, 95% air, and 100% relative humidity. For adherent cells, the assay is terminated by the addition of cold TCA. Cells are fixed in situ by the gentle addition of 50 μl of cold 50% (w/v) TCA (final concentration, 10% TCA) and incubated for 60 minutes at 4° C. The supernatant is discarded, and the plates are washed five times with tap water and air dried. Sulforhodamine B (SRB) solution (100 μl) at 0.4% (w/v) in 1% acetic acid is added to each well, and plates are incubated for 10 minutes at room temperature. After staining, unbound dye is removed by washing five times with 1% acetic acid and the plates are air dried. Bound stain is subsequently solubilized with 10 mM trizma base, and the absorbance is read on an automated plate reader at a wavelength of 515 nm. For suspension cells, the methodology is the same except that the assay is terminated by fixing settled cells at the bottom of the wells by gently adding 50 μl of 80% TCA (final concentration, 16% TCA).
For the 1-dose 60 cell testing, the Growth Percent is calculated for each cell line/drug combination from the absorbance measurement for the no-drug control (C), the absorbance at time zero (Tz) and the absorbance measurement after incubation of the cells in the presence of drug (Ti): Growth Percent=[(Ti−Tz)/(C−Tz)]×100 for cell line/drug combinations for which Ti≧Tz. Growth Percent=[(Ti−Tz)/Tz]×100 for cell line/drug combinations for which Ti<Tz.
Calculation of the Growth Percent by these equations allows detection of both growth inhibition (Growth Percent values between 0 and 100) and lethality (Growth Percent values less than 0). For example, a Growth Percent value of 100 means no growth inhibition. A Growth Percent value of 40 would mean 60% growth inhibition. A Growth Percent value of 0 means no net growth over the course of the experiment, or “cytostatic”, no change by growth or cell death. A Growth Percent value of −40 would mean 40% lethality. A Growth Percent value of −100 means all cells are dead.
For 1-dose 60 cell testing, the Mean Growth Percent, Delta and Range across all 60 cell lines are also calculated. The Deviation of each cell line/drug combination from the Mean is also calculated and plotted: Deviation=Mean Growth Percent−Growth Percent […]

[1] = single point 10 μM, 60 cell lines

| SMILES | GI50 (60 cell) [µM] | Delta of Growth Percent across all cell lines (60 cell lines) | Mean Growth Percent across all cell lines (60 cell lines) [%] | anti-proliferative effect / growth inhibition (in words) [1] | GI50 [1] [µM] |
| --- | --- | --- | --- | --- | --- |
| O=c1c2cccnc2c(-c2ccccn2)nn1C1CCCCC1 [RL-1, 6-cyclohexyl-8-(pyridin-2-yl)pyrido[2,3-d]pyridazin-5(6H)-one] | > 10 | 11.75 | 104.31 | little to no effect on cell growth; also recorded: little to no appreciable anti-proliferative effects | – |
| S=c1c2cccnc2c(-c2ccccn2)nn1C1CCCCC1 [RL-2, 6-cyclohexyl-8-(pyridin-2-yl)pyrido[2,3-d]pyridazine-5(6H)-thione] | – | 30.65 | 99.96 | little to no effect on cell growth; also recorded: little to no appreciable anti-proliferative effects | > 10 |
| O=c1c2ncccc2c(-c2ccccn2)nn1C1CCCCC1 [RL-3, 7-Cyclohexyl-5-(pyridin-2-yl)pyrido[2,3-d]pyridazin-8(7H)-one] | > 10 | 24.63 | 101.11 | little to no effect on cell growth; also recorded: little to no appreciable anti-proliferative effects | – |
